Assay results published in patent publication US8637554B2, “Methods for treating thyroid cancer” (The Trustees of the University of Pennsylvania, priority 2008, dated 2014).
Where “and” joins values, the source holds several entries; their conditions need not be identical. Identical values can stand only once. Entries after “also recorded” stand apart in the source; their conditions may differ.

Columns and labels:
Assay type in all cases: in vivo, human
[1] = tested on: solid malignancies (tumor neovasculature); experiment: DCE-MRI (Ktr) in CA4P clinical trials
Description: The results in the CA4P trials were variable. In DCE-MRI, the rate constant Ktrans (Ktr), representing the rate of passage of gadolinium from the plasma into the tumor interstitium, is determined. Ktr itself is determined as a function of both tumor blood flow and vascular permeability, thus serving as a marker of the status of the tumor neovasculature.

[2] = tested on: metastatic thyroid carcinoma; experiment: Open-label phase II study of oral sorafenib in metastatic thyroid carcinoma: best response by RECIST, PFS/TTP
Excerpt: Eligible patients were >18 years old with metastatic or unresectable thyroid carcinoma for which curative measures were no longer effective. Patients had evidence of measurable disease by RECIST criteria. All patients enrolled had evidence of disease progression in the year prior to initiation of treatment. Prior radioactive iodine treatments and one prior biologic treatment (kinase inhibitor, vaccine or antibody-based therapy) were allowed, but not within 3 weeks of treatment. […] Pre-menopausal women were required to have a negative pregnancy test and all patients of were required to use contraception.
Patients were ineligible if they had previous exposure to a Ras pathway inhibitor (including trastuzumab, EGFR inhibitors, farnesyl transferase inhibitors or MEK inhibitors) or were unable to swallow and retain oral pills. All patients provided written informed consent prior to enrollment on the trial. The study protocol was approved by the Institutional Review Board of the University of Pennsylvania.
(§1) This was an open-label, single institution phase II study of oral sorafenib in patients with metastatic thyroid carcinoma, including differentiated, poorly differentiated, medullary, and anaplastic subtypes. […] A cycle was defined as 4 weeks. Screening evaluations were completed within 2 weeks prior to the start of study drug, including medical history, demography, review of prior treatment, physical exam, 12-lead EKG, and laboratory evaluations including serum thyroid stimulating hormone (TSH) and thyroglobulin, and urinalysis. Radiological tests to identify target lesions were performed within 4 weeks of the first dose of study drug.
(§2) After beginning treatment, patients were followed at four-week intervals. At each visit, a history and physical examination were performed, and a CBC, chemistry panel, TSH and thyroglobulin drawn. Patients were assessed for new symptoms, compliance with study medications (pill count), and concomitant medications. Dose adjustments were made as needed for toxicity. Response was assessed radiographically after eight and sixteen weeks of treatment and every twelve weeks thereafter.
(§3) The study endpoints of best objective response rate and stable disease were measured based on the findings on computed tomography (CT) or magnetic resonance imaging (MRI) using RECIST. Additional endpoints included best response, duration of response and time to disease progression (TTP) on the basis of RECIST, clinical progression, or death. While TTP was the original endpoint, PFS and TTP were identical in this study, and PFS have been used in this report as it has become the more standard progression endpoint. All responses were confirmed by a study-designated radiologist. Adverse events were graded with the use of Common Terminology Criteria for Adverse Events, version 3.0 (CTCAE v3.0).
This study was designed to exclude the null hypothesis response rate of 5% using a Simon two-stage design; the first stage included 30 patients, with an optional second stage including 25 additional patients if at least one response was observed. The observed response rate was tested against the null rate of 5% using an exact test for binomial proportions. Estimates of PFS (time from beginning on study drug to earlier of progression or death) with associated 95% confidence intervals were obtained using the method of Kaplan and Meier. Comparison of PFS among histological subtypes was conducted using the logrank test. All enrolled patients who received at least one day of treatment were included in this intent-to-treat analysis.
2) Evidence of measurable disease by RECIST criteria 3) Any number of prior radioactive iodine treatments and up to one prior biologic treatment.
Primary Endpoint: Efficacy of sorafenib (objective response rate) in patients with metastatic thyroid carcinoma.
Patients on study were monitored with CT scans every 2 months and PET scans prior to beginning therapy and 4 weeks after starting treatment. […]

[3] = Phase II study of sorafenib: adverse events (CTCAE v3.0), dose changes, TSH
Excerpt: as §1, §2, §3

serum thyroglobulin = experiment: Serum thyroglobulin (sTG) monitoring in patients on sorafenib
Excerpt: as §1, §2
sTG levels are monitored monthly as part of the clinical trial. As sTG can rise due inadequate suppression of TSH, sTG levels are analyzed in the context of the serum TSH. In patients where […]. In addition, high levels of anti sTG antibodies can render the sTG levels un-interpretable. To date one patient has TSH that was not adequately controlled, and a second patient with anti sTG antibodies in excess of 1000 IU/ml. These patients are excluded from this analysis. sTG levels are correlated with clinical outcomes, and results of imaging and tissue analysis as described in the section on statistical analysis below.

Ki-67 = experiment: Immunohistochemistry of patient tumor tissue before and on sorafenib: Ki-67
Excerpt: (§4) Paraffin embedded tumor specimens from the patients' primary surgery and from lymph node biopsies after two weeks (Patient 1) and 17 months on treatment (Patient 2) were obtained. Thin (5 μm) sections from tumor tissue were cut and stained for the proliferation marker Ki-67 (Dakocytomation), and signaling markers p-ERK and p-AKT (Cell Signaling Technology) which are downstream indicators of BRAF and VEGFR2 activity. P-ERK is good reporter for BRAF activity, while p-AKT likely reflects signaling through several pathways including VEGFR. Slides were counterstained with hematoxylin and mounted in vectashield (Vector Labs). Two independent, blinded pathologists scored the slides based on intensity of stain and percent of cells staining positively.
(§5) Proliferation and cellular signaling in the tumor cell (TC) and the endothelial cell (EC) compartments were evaluated by immunohistochemistry (IHC).

p-ERK = experiment: Immunohistochemistry of patient tumor tissue before and on sorafenib: p-ERK
Excerpt: as §4, §5

p-AKT = experiment: Immunohistochemistry of patient tumor tissue before and on sorafenib: p-AKT
Excerpt: as §4, §5

[4] = tested on: metastatic papillary thyroid carcinoma (mPTC); experiment: Response by CT and PET scan in two patients with metastatic papillary thyroid carcinoma on sorafenib
Description: Patient 1: A person palpated a right-sided neck mass in August 2004. The patient underwent total thyroidectomy with lymph node dissection and pathology confirmed mPTC in one of eight lymph nodes. They were treated with ^131I and placed on thyroid hormone replacement. In August 2005, an enlarged lymph node was palpated in their neck.
Treatment began on Apr. 18, 2006. Toxicity was assessed at every four weeks and response to treatment was assessed using serial CT and PET scans.
Patient 2: A person presented with a sore throat in March 2002. Their physician noted only right sided cervical lymphadenopathy. […] Thyroidectomy and right neck lymph node dissection removed a 2.5 cm tall-cell PTC with 12 of 49 lymph nodes containing mPTC.
PET scans were obtained on a dedicated whole-body PET scanner (C-PET, Phillips). At FDG injection, patients had fasted for 6 hours and blood glucose levels were less than 150 mg/dL. Image acquisition started 60 min following intravenous administration of FDG at a dose of 1.85 MBq/kg (0.05 mCi/kg) body weight. A transmission scan was obtained for attenuation correction.

[5] = Table 3 summary, 42 total / 31 evaluable patients
[6] = first 30 patients as of May 25, 2008, follow-up Kaplan-Meier analysis
[7] = first 30 patients, intention-to-treat
[8] = first 30 patients, intention-to-treat, 400 mg orally twice a day
[9] = Patient 2, after 17 months of treatment
[10] = Patient 1, after 2 weeks of treatment

SMILES: COc1ccc(/C=C\c2cc(OC)c(OC)c(OC)c2)cc1OP(=O)(O)O [CA4P]
- Ktr response ([1]; certain patients, larger pre-treatment tumor Ktr values, incl. two with thyroid cancer): Strong Ktr responses
- Ktr response ([1]; other patients): little or no effect

SMILES: CNC(=O)c1cc(Oc2ccc(NC(=O)Nc3ccc(Cl)c(C(F)(F)F)c3)cc2)ccn1 [sorafenib]
- Clinical benefit (PR + SD) rate [2, 5]: 72%
- Clinical benefit (PR + SD), number of patients [2, 5]: 13
- Partial response (≧30%) rate [2, 5]: 24%
- Partial response (≧30%), number of patients [2, 5]: 10
- Stable disease rate [2, 5]: 48%
- Stable disease, number of patients [2, 5]: 19
- Overall median progression free survival ([2]; all 30 patients, Kaplan-Meier, analysis four months after last patient started): 79 weeks and 79.0 weeks
- DTC patients median progression free survival ([2]; differentiated thyroid cancers alone, Kaplan-Meier): 84 weeks
- Largest decrease in target lesions by RECIST (upper end of range of responses) ([2]; first 30 patients): 80%
- Median time to progression / PFS, all patients [2, 6]: 72 weeks
- Median time to progression / PFS, differentiated thyroid cancers (DTC) [2, 6]: 84 weeks
- Clinical benefit (PR + SD), number of patients [2, 7]: 23
- Partial response (PR, ≧30%), number of patients [2, 7]: 7
- Progressive disease as best response, number of patients [2, 7]: 2
- Progressive disease as best response, rate [2, 7]: (3%)
- Stable disease (SD), number of patients [2, 7]: 16
- Best response by RECIST: complete response rate [2, 8]: (0%)
- Best response by RECIST: complete response, number of patients [2, 8]: 0
- Decrease in size of visible shoulder nodule ([2]; patient with poorly differentiated thyroid cancer, at 4 weeks, before progression): 50%
- CT response of target lesions, lung metastases ([2]; person, follicular thyroid cancer, after 16 weeks, FIG. 3A): partial response
- CT burden of lung disease ([2]; person, papillary thyroid cancer, miliary lung metastases, after 33 weeks, FIG. 3B): marked improvement
- Disease symptoms (cough, dyspnea on exertion) ([2]; two patients of FIG. 3, within the first six months of treatment): complete resolution of their symptoms
- Patients requiring drug holidays due to adverse events ([3]; 30 patients): 63%
- Patients who discontinued treatment due to adverse events ([3]; 30 patients): 20%
- Patients who experienced some weight loss ([3]; 30 patients): 60%
- Patients with doses reduced to control toxicities ([3]; 30 patients): 47%
- Toxicity leading to withdrawal, single patients ([3]; CTCAE grade): grade 3 rash; also recorded: grade 2 fatigue; also recorded: grade 4 liver toxicity
- Severity of treatment-related adverse events ([3]; CTCAE v3.0): predominantly of grade 1 or 2
- Patients WD due to toxicity, number ([3]; Table 3 summary, 42 total patients): 2
- Outcome of LFT elevations after eight weeks, one patient ([3]; despite dose reductions and cessation): died of liver failure
- Patients with rise in serum TSH to levels greater than 0.10 mIU/L ([3]; while on sorafenib, 30 patients): 33%
- Patients with marked response in serum thyroglobulin levels (serum thyroglobulin; Seventeen of 19 patients with serial levels): 95%
- Thyroglobulin levels (serum thyroglobulin; approximately 15 new patients enrolled since November 2008, iodine non-avid metastatic thyroid cancer): increased
- Iodine uptake (serum thyroglobulin; inferred from thyroglobulin levels, iodine non-avid metastatic thyroid cancer): effective in increasing the iodine uptake
- Course of sTG early on treatment (serum thyroglobulin; most patients, first two to four months): falls precipitously; also recorded: dropped precipitously
- Initial decline of serum thyroglobulin (sTG) (serum thyroglobulin; patient 5, stably suppressed TSH, FIG. 4): 25 % baseline levels
- Mean decrease in serum thyroglobulin (serum thyroglobulin; within four months of starting treatment): 70%
- Ki-67 positive cells (Ki-67; Patient 1, tissue after two weeks of treatment (pre-treatment 1% of TCs)): less than 1%
- Ki-67 positive TCs versus pre-treatment (Ki-67; [9]): no change in the number of positive cells
- p-ERK staining in ECs (p-ERK; [10]): no longer detected
- p-ERK staining in TCs (p-ERK; [10]): decreased
- p-ERK expression in ECs (p-ERK; [9]): markedly increased
- p-ERK staining in TCs (p-ERK; [9]): unchanged
- p-AKT staining in ECs (p-AKT; [10]): decreased
- p-AKT staining in TCs (p-AKT; [10]): did not show any change
- p-AKT staining in ECs and TCs (p-AKT; Patient 2, at 17 months): slight increase
- Progression-free survival ([4]; Patient 1): ≥ 1.3 years
- Decrease of target lesions (PR) ([4]; Patient 1, after 12 months): 30%
- Decrease in size of lung lesions by RECIST ([4]; Patient 1, after 12 weeks): 25%
- Progression-free survival ([4]; Patient 2): ≥ 3.7 years
- Maintained partial response ([4]; Patient 2, after 3.7 years on sorafenib): 70%
- Decrease of largest target lesion ([4]; Patient 2, after 12 weeks): 52%
- Decrease of largest target lesion ([4]; Patient 2, continued shrinkage after 20 weeks): 72%
